Measured values as given in patent US5082841A, “3-carbonyl-4-amino-8-substituted quinoline compounds useful in inhibiting gastric acid secretions” (SmithKline Beecham Intercredit B.V., priority 1989, dated 1992).

These molecules were tested against T1, H+ K+ ATPase (lyophilised gastric vesicles) (Sus scrofa, UniProt P19156) (assay: K+-stimulated ATPase activity in lyophilised gastric vesicles). Settings: lyophilised gastric vesicles from pig fundic mucosa, 37° C., pH 7.0, 1 mM KCl, 30 minutes incubation.
T1 construct: Lyophilised gastric vesicles were prepared from pig fundic mucosa; from tissue; host or cells: pig fundic mucosa (lyophilised gastric vesicles)
Assay type: biochemical
Protocol: The effects of a single high concentration (100 μM) of a compound of structure (I) on K-stimulated ATPase activity in lyophilised gastric vesicles was determined. Preferred compounds of structure (I) were also tested over a range of concentrations to determine IC50 values.
(i) Preparation of lyophilised gastric vesicles (H/K-ATPase)
Lyophilised gastric vesicles were prepared from pig fundic mucosa after the method of Keeling et. al. (Biochem. Pharmacol., 34, 2967, 1985).
(ii) K^+ -stimulated ATPase activity.
K^+ -stimulated ATPase activity was determined at 37° C. in the presence of the following : I0 mM Pipes/Tris buffer pH 7.0, 2 mM MgSO4, 1 mM KCl, 2 mM Na2 ATP and 3-6 μg protein/ml lyophilised gastric vesicles. After incubation for 30 minutes, the inorganic phosphate hydrolysed from ATP was determined by the method of Yoda and Hokin (Biochem. Biophys. Res. Commun. 40, 880, 1970).
Compounds of structure (I) were dissolved in dimethylsulphoxide which up to the highest concentration used had no effect on K+-stimulated ATPase activity.
The effect of the highest concentration of each compound of structure (I) on the recovery of a standard amount of inorganic phosphate wa also determined.

T1 sequence (P19156 2-1034 limits assumed): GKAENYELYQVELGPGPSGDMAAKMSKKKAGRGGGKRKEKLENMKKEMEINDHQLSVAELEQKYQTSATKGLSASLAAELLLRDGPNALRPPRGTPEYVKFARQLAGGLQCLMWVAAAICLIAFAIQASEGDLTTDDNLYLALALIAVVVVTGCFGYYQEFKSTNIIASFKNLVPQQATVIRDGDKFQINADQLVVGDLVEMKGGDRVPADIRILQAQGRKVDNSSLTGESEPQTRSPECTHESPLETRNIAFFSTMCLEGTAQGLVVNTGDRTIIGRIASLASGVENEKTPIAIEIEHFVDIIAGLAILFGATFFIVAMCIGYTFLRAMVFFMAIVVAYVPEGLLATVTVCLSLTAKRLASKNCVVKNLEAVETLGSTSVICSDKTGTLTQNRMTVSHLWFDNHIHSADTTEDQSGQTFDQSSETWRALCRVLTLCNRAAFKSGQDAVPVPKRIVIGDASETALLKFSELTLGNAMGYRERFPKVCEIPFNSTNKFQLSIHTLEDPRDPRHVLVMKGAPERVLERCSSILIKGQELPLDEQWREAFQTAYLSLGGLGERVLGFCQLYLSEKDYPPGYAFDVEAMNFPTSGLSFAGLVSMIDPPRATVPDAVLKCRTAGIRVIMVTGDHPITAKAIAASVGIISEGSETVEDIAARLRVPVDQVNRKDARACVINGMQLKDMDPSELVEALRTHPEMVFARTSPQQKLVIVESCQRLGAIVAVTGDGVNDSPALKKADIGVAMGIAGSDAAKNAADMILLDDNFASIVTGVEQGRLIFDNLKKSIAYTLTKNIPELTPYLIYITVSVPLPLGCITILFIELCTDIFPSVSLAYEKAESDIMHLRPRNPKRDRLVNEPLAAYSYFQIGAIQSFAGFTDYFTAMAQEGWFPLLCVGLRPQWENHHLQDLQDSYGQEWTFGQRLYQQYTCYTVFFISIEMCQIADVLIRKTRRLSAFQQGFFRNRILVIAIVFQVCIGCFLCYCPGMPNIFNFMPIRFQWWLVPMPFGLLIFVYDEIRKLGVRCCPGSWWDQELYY
T1 sequence (P18434 whole entry partner): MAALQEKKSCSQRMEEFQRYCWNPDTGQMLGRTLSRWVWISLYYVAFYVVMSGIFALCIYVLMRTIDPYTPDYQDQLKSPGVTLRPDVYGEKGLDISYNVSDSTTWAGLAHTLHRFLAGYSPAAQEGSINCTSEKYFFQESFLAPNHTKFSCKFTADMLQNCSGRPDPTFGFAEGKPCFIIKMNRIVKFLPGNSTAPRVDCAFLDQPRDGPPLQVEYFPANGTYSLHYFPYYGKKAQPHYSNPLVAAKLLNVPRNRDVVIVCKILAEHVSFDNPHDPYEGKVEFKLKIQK

IC50, 390 to 3520 nM:
CCCC(=O)c1cnc2c(OCCCN(C)C)cccc2c1Nc1ccccc1C [Example 1, 3-butyryl-4-(2-methylphenylamino)-8-(3-dimethylaminopropoxy)quinoline]
CCCC(=O)c1cnc2c(OCCCN(C)C)cccc2c1Nc1ccc(F)cc1C [Example 2, 3-butyryl-4-(4-fluoro-2-methylphenylamino)-8-(3-dimethylaminopropoxy)quinoline]
CCCC(=O)c1cnc2c(OCCN(C)C)cccc2c1Nc1ccccc1C [Example 3, 3-butyryl-4-(2-methylphenylamino)-8-(2-dimethylaminoethoxy)quinoline]
CCCC(=O)c1cnc2c(OCCCN3CCCC3)cccc2c1Nc1ccccc1C [Example 4, 3-butyryl-4-(2-methylphenylamino)-8-(3-(1-pyrrolidinyl)propoxy)quinoline]
CCCC(=O)c1cnc2c(OCCCN3CCCCC3)cccc2c1Nc1ccccc1C [Example 5, 3-butyryl-4-(2-methylphenylamino)-8-(3-piperidinopropoxy)quinoline]
CCCC(=O)c1cnc2c(OCCCN3CCOCC3)cccc2c1Nc1ccccc1C [Example 6, 3-butyryl-4-(2-methylphenylamino)-8-(3-morpholinopropoxy)quinoline]
CCCC(=O)c1cnc2c(C(O)CN3CCOCC3)cccc2c1Nc1ccccc1C (centres unmarked) [Example 7, 3-butyryl-4-(2-methylphenylamino)-8-(1-hydroxy-2-(1-morpholino)ethyl)quinoline]
CCCC(=O)c1cnc2c(C(O)CN(C)C)cccc2c1Nc1ccccc1C (centres unmarked) [Example 8, 3-butyryl-4-(2-methylphenylamino)-8-(1-hydroxy-2-dimethylaminoethyl)quinoline]
CCCC(=O)c1cnc2c(OCCCN(C)Cc3ccccc3)cccc2c1Nc1ccccc1C [Example 9, 3-butyryl-4-(2-methylphenylamino)-8-(3-(N-benzyl-N-methylamino)propoxy)quinoline]
CCCC(=O)c1cnc2c(OCCCN(C)CCCc3ccccc3)cccc2c1Nc1ccccc1C [Example 10, 3-butyryl-4-(2-methylphenylamino)-8-(3-(N-methyl-N-(3-phenylpropyl)amino)propoxy)quinoline]
CCCC(=O)c1cnc2c(NCCCN3CCOCC3)cccc2c1Nc1ccccc1C [Example 11, 3-butyryl-4-(2-methylphenylamino)-8-(3-morpholinopropylamino)quinoline]
